Assay results from patent US20230183187A1, “QUINAZOLINE COMPOUNDS AS INHIBITORS OF PREMATURE TERMINATION CODONS” (CENTRE NATIONAL DE LA RECHERCHE SCIENTIFIQUE, priority 2020, published 2023).

Key:
HeLa cells = test: IC50 in HeLa cells; assay type: cell-based; conditions: Homo sapiens
nonsense mutation W1268X = test: pAC99 dual reporter readthrough in HeLa cells, W1268X; assay type: cell-based, human; conditions: 24 hours
Experimental: (§1) Different compounds of the invention have been tested for their ability to induce readthrough on the nonsense mutation W1268X or R213X in HeLa cells.
(§2) To this aim the inventors used the pAC99 dual reporter plasmid. This dual reporter is used to quantify stop-codon readthrough through the measurement of luciferase and beta-galactosidase (internal normalisation) activities. Readthrough levels for nonsense mutations were analysed in the presence or absence of tested molecules. Cells are seeded in a 6-well plate. The next day, cells are transfected with the reporter plasmid using the JetPei reagent (Invitrogen). The following day, they are rinsed with fresh medium, with or without readthrough inducers. Cells were harvested 24 hours later, with trypsin—EDTA (Invitrogen), lysed with Glo lysis buffer (Promega) and beta-galactosidase and luciferase activities were assayed as previously described. Readthrough efficiency was estimated by calculating the ratio of luciferase activity to beta-galactosidase activity obtained with the test construct, with normalisation against an in-frame control construct. At least five independent transfection experiments were performed for each assay.

nonsense mutation R213X = test: pAC99 dual reporter readthrough in HeLa cells, R213X; assay type: cell-based, human; conditions: 24 hours
Experimental: as §1, §2

[1] = test system: p53 (endogenous nonsense mutation R213X) in HDQ-P1 cells; test: Western blot of full-length p53 in HDQ-P1 cells; assay type: cell-based, human; conditions: HDQ-P1, 48 h; for production of the full-length p53 (western blot): TLN68 50 μM, TLN236 30 μM, TLN309 40 μM
Experimental: HDQ-P1 cells (R213X) were treated with G418 ([…]), or the selected molecules (TLN68 50 μM, TLN1399 50 μM, TLN236 30 μM and TLN309 40 μM), for 48 h. Cells were harvested by treatment with trypsin—EDTA (Invitrogen), lysed in 350 mM NaCl, 50 mM Tris—HCl pH 7.5, 1% NP-40, and protease inhibitor cocktail (Roche) and disrupted by passage through a syringe.
Total proteins were quantified with Bradford reagent (Biorad) and extracts were denatured by incubation in Laemmli buffer for 5 minutes at 90° C. The inventors subjected 30 μg of total protein from HDQ-1 cells to SDS—PAGE in 4/10% Bis—Tris gels. Proteins were transferred onto nitrocellulose membranes, according to the manufacturer's instructions (Biorad). Membranes were saturated by overnight incubation in 5% skimmed milk powder in PBS, and incubated for 1 hour with the primary monoclonal antibody, DO-1 (N-terminal epitope mapping between amino acid residues 11 and 25 of p53; Santa Cruz Biotechnologies, 1/400) or a monoclonal antibody against mouse actin (Millipore, 1/2000). After three washes in PBS supplemented with 0.1% Tween, the membranes were incubated with the secondary antibody [horseradish peroxidase-conjugated anti-mouse IgG ( 1/2500)] for 45 minutes. The membranes were washed five times and chemiluminescence was detected with ECL Prime Western Blotting Detection Reagents (Amersham, GE Healthcare). The signal was quantified with ImageJ software.

TP53-R213X mRNA = test: RT-qPCR of mutant p53 mRNA in HDQ-P1 cells; assay type: cell-based, human; conditions: HDQ-P1, 48 hours; TLN68 80 μM, TLN309 40 μM; n=3
Experimental: For the analysis of mRNA levels for p53 and its transcriptional target genes, Bax, the inventors extracted total RNA from HDQ-P1 cells that had or had not been treated with G418 (400 μM) or TLN68 (80 μM) for 48 hours (RNeasy Mini Kit, Qiagen). The RNA was treated with DNAse I (RNase-free DNase) and quantified with a Nanodrop spectrometer (ThermoScientific). The absence of RNA degradation was confirmed by agarose gel electrophoresis. The first-strand cDNA was synthesized from 2 μg of total RNA, with random primers and the SuperScript II Reverse Transcriptase (Invitrogen), as recommended by the manufacturer. Quantitative PCR was then carried out on equal amounts of the various cDNAs, with a CFX96 thermocycler (Biorad), and the accumulation of products was monitored with the intercalating dye FastStart Universal SYBRGreen Master (ROX) reagent (Roche). The inventors quantified mRNA levels relative to three reference mRNAs: RPL32, Hprt1 and HMBS. In each experiment, results are expressed relative to those for untreated cells, for which the value obtained was set to 1. Relative levels of gene expression were calculated at early stages of PCR, when the amplification was exponential and might, therefore, be correlated with the initial number of copies of the transcript. […] For the quantification of each mRNA, three independent experiments (from biological replicates) were performed in triplicate. […]

[2] = test system: TP53 R213X nonsense mutation; test: Dual reporter (lacZ/F-luc, pAC99) stop codon readthrough quantification, R213X, NIH3T3 cells; assay type: cell-based, mouse; conditions: 24 h, each drug separately or together
Description: Complementary oligonucleotides corresponding to TP53 R213X nonsense mutations and 9 nucleotides on both sides are ligated into the pAC99 dual reporter plasmid, as previously described (Premature stop codons involved in muscular dystrophies show a broad spectrum of readthrough efficiencies in response to gentamicin treatment, Bidou et al, Gene Therapy 1 Apr. 2004, 11(7):619-627). This dual reporter is used to quantify stop-codon readthrough through the measurement of luciferase and beta-galactosidase (internal calibration) activities, as previously described (Stahl et al, Versatile vectors to study recoding: conservation of rules between yeast and mammalian cells. Nucleic Acids Res 1995; 23:1557-60). Readthrough levels for nonsense mutations were analysed in the presence or absence of tested molecules. Cells were seeded in a 6-well plate. The next day, cells are transfected with the reporter plasmid in the presence of JetPei reagent (Invitrogen). The following day, they are rinsed with fresh medium, with or without readthrough inducers. […] Readthrough efficiency was estimated by calculating the ratio of luciferase activity to beta-galactosidase activity obtained with the test construct, with normalisation against an in-frame control construct. […]

[3] = test system: TP53 nonsense mutation R213X; test: Secreted Metridia luciferase R213X reporter in stable NIH3T3 cell line (HTS); assay type: cell-based, mouse; conditions: gentamicin 1.6 mM 24 hours, 7 clones, library molecules 50 μM
Experimental: All cells were cultured in DMEM plus GlutaMAX (Invitrogen), except for H1299 cells, which were cultured in RPMI plus GlutaMAX (Invitrogen). The medium was supplemented with 10% foetal calf serum (FCS, Invitrogen) and 100 U/ml penicillin/streptomycin. Cells were kept in a humidified atmosphere containing 5.5% CO2, at 37° C. NIH3T3 cells are embryonic mouse fibroblasts. H1299 is a p53-null cell line established from a human lung carcinoma (provided by the ATCC). HDQ-P1 is homozygous for a nonsense mutation at codon 213 (CGA to TGA) in the p53 gene. This cell line was established from a human primary breast carcinoma and was provided by DSMZ-German collection of microorganisms and cell cultures. In order to generate a stable mammalian cell line the inventors used a secreted Metridia luciferase reporter gene derived from pMetLuc2 (Clonetech). […] Seven neomycin resistant clones were tested for their capacity to express active metridiae after readthrough induction in the presence of 1.6 mM gentamicin during 24 hours. Then 50 μL of culture medium was taken from each well and incubated in the presence of substrate: coelenterazine, according to the conditions recommended by the supplier (Ready-To-Glow Secreted Luciferase Reporter Assay (Clonetech)). The photon emission generated by the reaction was measured in a plate luminometer (Tecan). […]

dystrophin = conditions: skeletal muscle of mdx mice, subcutaneous injections (Barton-Davis et al, 1999); cited from earlier work

| Compound | IC50 (HeLa cells) | Inducting factor of readthrough as compared to untreated cells (measured on nonsense mutation W1268X) (nonsense mutation W1268X) | Inducting factor of readthrough as compared to untreated cells (measured on nonsense mutation R213X) (nonsense mutation R213X) | also measured |
| --- | --- | --- | --- | --- |
| Cc1nc(NC(=N)N)nc2cc(F)ccc12 [EC-11] | 40 µM | 11 |  |  |
| COc1ccc2c(C)nc(NC(=N)N)nc2c1 [EC-18, 1-(7-methoxy-4-methylquinazolin-2-yl)guanidine] | 60 µM | 69 | 50 |  |
| COc1cccc2c(C)nc(NC(=N)N)nc12 [EC-30] | 80 µM | 10 |  |  |
| Cc1nc(NC(=N)N)nc2c(C)cccc12 [EC-35, 1-(4,8-dimethylquinazolin-2-yl)guanidine] | 20 µM | 11 | 14 |  |
| Cc1nc(NC(=N)N)nc2cc(Br)ccc12 [EC-85] | 20 µM | 15 | 16 |  |
| Cc1nc(NC(=N)N)nc2c(C)c(Br)ccc12 [EC-130, 1-(7-bromo-4,8-dimethylquinazolin-2-yl)guanidine] | 10 µM | 21 | 33 |  |
| Cc1nc(NC(=N)N)nc2cc(Cl)ccc12 [EC-141] | 40 µM | 16 |  |  |
| CCc1nc(NC(=N)N)nc2cc(OC)ccc12 [EC-265] | 60 µM | 19 | 40 |  |
| Cc1nc(NC(=N)N)nc2c(C)c(F)ccc12 [EC-288, 1-(7-fluoro-4,8-dimethylquinazolin-2-yl)guanidine] | 20 µM | 68 | 55 |  |
| Cc1nc(NC(=N)N)nc2c(C)c(Cl)ccc12 [EC-335, 1-(7-chloro-4,8-dimethylquinazolin-2-yl)guanidine] | 10 µM | 33 | 38 |  |
| COc1cc(C(=O)OCCCN2CCCN(CCCOC(=O)c3cc(OC)c(OC)c(OC)c3)CC2)cc(OC)c1OC.Cl.Cl [TLN236] |  |  |  | production of the full-length p53 (western blot) [1]: no protein is revealed |
| CCN(CC)Cc1cc(Nc2ccnc3cc(Cl)ccc23)ccc1O [TLN309, Amodiaquine] |  |  |  | level of induction of full-length p53 compared with G418 ([1]; G418 10 and 20 mM): even higher to the one obtained in presence of G418; production of the full-length p53 (western blot) [1]: stimulate the production of the full-length p53; stabilisation of TP53-R213X mRNA relative to untreated (TP53-R213X mRNA): marginal stabilisation |
| gentamicin |  |  |  | readthrough level [2]: 10%; induction of Metridia luciferase activity [3]: significant induction; restoration of dystrophin levels relative to wild-type animals (dystrophin): 10-20% |
